From publication PMC9198986, “Controlling Doxorubicin Release from a Peptide Hydrogel through Fine-Tuning of Drug–Peptide Fiber Interactions” (Biomacromolecules, 2022)
Where no end group is shown, it is not given here.

Legend:
[1] = Gels biodegradability: fraction of intact peptide after incubation in 50% FBS (RP-HPLC); assay type: in vitro ADME, bovine; details: 14 mM hydrogel, 37 °C; for level of degradation up to 12 h: first 12 h; for susceptibility to enzymatic degradation, rank: up to 72 h
Protocol: Peptide hydrogels (14 mM) were incubated in either PBS or 50% FBS ddH2O solution at 37 °C. At selected time points (2, 5, 10, 24, 48, and 72 h), the gels were disassembled by dilution to 1 mg mL^–1 in a 1% trifluoroacetic acid (TFA) water/acetonitrile (50/50 v/v) solution. Reversed phase-high-performance liquid chromatography (RP-HPLC) analyses were conducted at 25 °C on an Ultimate 3000 HPLC system (Dionex) equipped with a variable wavelength UV detector (wavelength used 210 nm) and a gradient pump. Separation was performed on a Phenomenex Jupiter 4μ Proteo column 90A° (250 × 4.66 mm) fitted with a 300 Guard Cartridge (4.3 × 10 mm). A flow rate of 1 mL min^–1 was used for all separations. The mobile phase consisted of a mixture of water: TFA(0.1%)—solvent A and acetonitrile/TFA(0.1%)—solvent B. An elution gradient of 90% solvent A/10% solvent B to 30% solvent A/70% solvent B over 45 min was used. 100 μL of sample aliquots was injected into the column using an ACC-3000 autosampler. Data were analyzed using Chromoleon 6.80 software. The peptide stability was expressed as a fraction of intact peptide present in the sample at sampling time t using the following equation [drawing 1] 1 where AUCPBS (t) and AUCFBS (t) are the intact peptide peak areas under the HPLC curves obtained at the sampling time t for hydrogels incubated with PBS and 50% FBS ddH2O solutions, respectively.
We also examined the susceptibility of these peptide hydrogels to enzymatic degradation by incubating them in a 50 FBS/50 PBS media mixture. At the selected time points, the samples were homogenized (release buffer + remaining hydrogel), and the fraction of intact, that is, nondegraded peptide was estimated via HPLC. FBS contains a wide array of proteases and other enzymes that will degrade proteins and peptides. […] Dox release was also measured using a 50 FBS/50 PBS mixture as release media. […] From 24 h onward, similar release profiles were obtained in the presence and absence of FBS, probably due to the fact that by then most of the Dox has been released, and the supernatant release media is reaching saturation (Figure S5).

3T3 murine fibroblasts = assay: 3T3 fibroblast viability under hydrogel inserts (PicoGreen dsDNA); assay type: cell-based, mouse; details: non-loaded 14 mM hydrogel in insert above 3T3 cells; for cell viability with non-loaded hydrogels: over 48 h, PicoGreen dsDNA
Protocol: 3T3 murine fibroblasts were seeded (1.5 × 10^4 cells cm^–2) in 12-well cell culture plates and 1.5 mL of DMEM supplemented with 10% FBS added per well. 400 μl of hydrogels (14 mM) with and without Dox (240 μM) were plated within 12-well cell culture plate inserts (ThinCert, Greiner Bio-One, pore size 1 μm) and placed above the cells. At selected time points, cells were retrieved from the cell culture wells, and the amount of double-stranded DNA (dsDNA) content was measured using PicoGreen dsDNA assay (Life Technologies, Carlsbad, CA, USA) following the manufacturer’s protocol.
Finally, we confirmed that the Dox released from the hydrogels was still active by investigating its effect on 3T3 mouse fibroblasts. This was achieved by culturing the fibroblasts in 2D in cell culture wells and placing the hydrogels (loaded and non-loaded with Dox) in inserts equipped with porous membranes above the cells (see schematics in Figure 6). This experimental setup was used to avoid a direct contact between the hydrogels and the cells but still allow the drug to diffuse from the hydrogels into the cell culture media. Dox is known to affect cell proliferation and viability via DNA intercalation and inhibition of topoisomerase II.[24],[25] Therefore, at the selected time points, the effect of Dox on fibroblasts viability was evaluated by measuring the total amount of double-stranded DNA (dsDNA), which is directly proportional to the number of live cells present.

hydrogel degradation at later times ([1]; >24 h, RP-HPLC) | level of degradation up to 12 h ([1]; RP-HPLC) | level of degradation ([1]; RP-HPLC) | susceptibility to enzymatic degradation, rank ([1]; RP-HPLC) | peptide degraded ([1]; after 5 h, RP-HPLC UV 210 nm, intact peak area vs PBS incubation) [%] | Sequence | cell viability with non-loaded hydrogels (3T3 murine fibroblasts) | dsDNA detected after 48 h as % of the amount at t = 0 (3T3 murine fibroblasts; DMEM 10% FBS, 48 h, PicoGreen) [%]
more substantial | low levels of degradation |  |  |  | FEFEFKFE [FE] | good cell viabilities | 
 |  | minimal degradation |  |  | FEFKFEFK [F8] | good cell viabilities | 
 |  | minimal degradation | least susceptible |  | FEFKFEFKK [F8K] | good cell viabilities | 
 | low level of degradation |  |  |  | FKFEFKFK [FK] | some level of cytotoxicity | 40
 |  |  | most susceptible | ~40 | KFEFKFEFKK [KF8K] | good cell viabilities | 
